Laboratory results: patent publication US11111237B2, “Bicyclic compound and use thereof” (SK BIOPHARMACEUTICALS CO., LTD., priority 2019, dated 2021)
Counter-ions that a name gives are not always drawn.

Target: PRMT5-MEP50 enzyme complex (Homo sapiens (Human), UniProt O14744)
Assay: PRMT5 enzyme activity in vitro assay (methylation of histone H4R3, ELISA absorbance at 450 nm)
Assay type: biochemical
Conditions: SAM, histone H4 peptide, room temperature 2 hours, 8 points from 10 μM to 0.128 nM
In short: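 IC50 was derived from ELISA absorbance at 450 nm, using primary and HRP antibodies against H4R3 methylation on immobilised histone H4 peptide (residues 1-20). Compounds (10 μM to 0.128 nM, 8 points, 1:5) were incubated 2 h at room temperature with the PRMT5-MEP50 complex and SAM, diluted to 5 μg/mL and 2 μM respectively.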

Chain of PRMT5-MEP50 enzyme complex (O14744 2-637): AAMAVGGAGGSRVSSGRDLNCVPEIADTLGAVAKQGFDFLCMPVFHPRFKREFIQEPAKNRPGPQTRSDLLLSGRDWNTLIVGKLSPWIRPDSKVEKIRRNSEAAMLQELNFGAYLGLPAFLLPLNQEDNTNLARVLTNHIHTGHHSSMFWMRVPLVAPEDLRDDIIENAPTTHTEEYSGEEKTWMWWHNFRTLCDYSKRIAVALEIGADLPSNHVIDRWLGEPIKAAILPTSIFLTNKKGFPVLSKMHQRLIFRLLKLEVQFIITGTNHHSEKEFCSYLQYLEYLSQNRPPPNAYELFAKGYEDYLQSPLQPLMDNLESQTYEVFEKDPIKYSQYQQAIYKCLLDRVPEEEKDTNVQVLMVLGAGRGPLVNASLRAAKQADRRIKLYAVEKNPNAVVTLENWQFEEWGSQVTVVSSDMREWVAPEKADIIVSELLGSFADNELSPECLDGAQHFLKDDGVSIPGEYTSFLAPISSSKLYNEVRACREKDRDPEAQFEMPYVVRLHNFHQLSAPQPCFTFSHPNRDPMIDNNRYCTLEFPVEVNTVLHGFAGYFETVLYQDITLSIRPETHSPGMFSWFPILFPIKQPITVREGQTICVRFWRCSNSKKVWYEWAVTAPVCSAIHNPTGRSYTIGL
Chain of PRMT5-MEP50 enzyme complex (Q9BQA1 2-342 partner): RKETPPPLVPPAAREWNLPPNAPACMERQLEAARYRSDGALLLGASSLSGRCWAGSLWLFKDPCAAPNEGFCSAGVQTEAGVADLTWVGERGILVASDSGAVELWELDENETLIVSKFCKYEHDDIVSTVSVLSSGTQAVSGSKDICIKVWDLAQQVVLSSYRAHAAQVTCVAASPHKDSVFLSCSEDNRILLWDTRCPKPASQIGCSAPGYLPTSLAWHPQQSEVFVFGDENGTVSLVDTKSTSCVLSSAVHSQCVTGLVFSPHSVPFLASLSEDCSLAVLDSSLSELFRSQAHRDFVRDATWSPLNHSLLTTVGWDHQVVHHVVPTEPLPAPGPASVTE

| SMILES | IC50 [nM] |
| --- | --- |
| O=C1c2ccc(OC(F)(F)F)cc2CCCN1C[C@H](O)CN1CCc2ccccc2C1 [Example 6, 2-[(2R)-3-(3,4-dihydro-1H-isoquinolin-2-yl)-2-hydroxy-propyl]-7-(trifluoromethoxy)-4,5-dihydro-3H-2-benzazepin-1-one] | 1 to 100 |
| CC(=O)N1CCN(Cc2ccc3c(c2)OC(C)(C)CN(C[C@H](O)CN2CCc4ccccc4C2)C3=O)CC1 [Example 167, 8-[(4-acetylpiperazin-1-yl)methyl]-4-[(2R)-3-(3,4-dihydro-1H-isoquinolin-2-yl)-2-hydroxy-propyl]-2,2-dimethyl-3H-1,4-benzoxazepin-5-one] | 100 to 1000 |
| CC1(C)CN(C[C@H](O)CN2CCc3ccccc3C2)C(=O)c2ccc(OC3CCN(C=O)CC3)cc2O1 [Example 181, 4-[[4-[(2R)-3-(3,4-dihydro-1H-isoquinolin-2-yl)-2-hydroxy-propyl]-2,2-dimethyl-5-oxo-3H-1,4-benzoxazepin-8-yl]oxy]piperidine-1-carbaldehyde] | 100 to 1000 |
| C[C@H]1CN(C[C@H](O)CN2CCc3ccccc3C2)C(=O)c2ccc(OC3CN(CCF)C3)cc2O1 [Example 201, (2S)-4-[(2R)-3-(3,4-dihydro-1H-isoquinolin-2-yl)-2-hydroxy-propyl]-8-[1-(2-fluoroethyl)azetidin-3-yl]oxy-2-methyl-2,3-dihydro-1,4-benzoxazepin-5-one] | 100 to 1000 |
| CC1(C)CN(C[C@H](O)CN2CCc3ccccc3C2)C(=O)c2ccc(CN3CCN(C4COC4)CC3)cc2O1 [Example 182, 4-[(2R)-3-(3,4-dihydro-1H-isoquinolin-2-yl)-2-hydroxy-propyl]-2,2-dimethyl-8-[[4-(oxetan-3-yl)piperazin-1-yl]methyl]-3H-1,4-benzoxazepin-5-one] | 100 to 1000 |
| CN1CCN(C[C@H](O)CN2CCc3ccccc3C2)C(=O)c2ccc(CC3CCCCC3)cc21 [Example 117, 8-(cyclohexylmethyl)-4-[(2R)-3-(3,4-dihydro-1H-isoquinolin-2-yl)-2-hydroxy-propyl]-1-methyl-2,3-dihydro-1,4-benzodiazepin-5-one] | 100 to 1000 |
| O=C1c2ccc(OCc3ccncc3F)cc2OCCN1C[C@H](O)CN1CCc2ccccc2C1 [Example 62, 4-[(2R)-3-(3,4-dihydro-1H-isoquinolin-2-yl)-2-hydroxy-propyl]-8-[(3-fluoro-4-pyridyl)methoxy]-2,3-dihydro-1,4-benzoxazepin-5-one] | 1 to 100 |
| CC1(C)CN(C[C@H](O)CN2CCc3ccccc3C2)C(=O)c2ccc(OC3CCN(CCO)CC3(F)F)nc2O1 (stereo partly drawn) [Example 256, 8-[[3,3-difluoro-1-(2-hydroxyethyl)-4-piperidyl]oxy]-4-[(2R)-3-(3,4-dihydro-1H-isoquinolin-2-yl)-2-hydroxy-propyl]-2,2-dimethyl-3H-pyrido[3,2-f][1,4]oxazepin-5-one] | 100 to 1000 |
| CN1CCC(Oc2cc(F)c3c(c2)OCCN(C[C@H](O)CN2CCc4ccccc4C2)C3=O)CC1 [Example 109, 4-[(2R)-3-(3,4-dihydro-1H-isoquinolin-2-yl)-2-hydroxy-propyl]-6-fluoro-8-[(1-methyl-4-piperidyl)oxy]-2,3-dihydro-1,4-benzoxazepin-5-one] | 100 to 1000 |
| O=C(c1ccc2c(c1)OCCN(C[C@H](O)CN1CCc3ccccc3C1)C2=O)N1CCOC(F)(F)C1 [Example 195, 8-(2,2-difluoromorpholin-4-carbonyl)-4-[(2R)-3-(3,4-dihydro-1H-isoquinolin-2-yl)-2-hydroxy-propyl]-2,3-dihydro-1,4-benzoxazepin-5-one] | 100 to 1000 |
| CC1COCC(C)N1C(=O)c1ccc2c(c1)OC(C)(C)CN(C[C@H](O)CN1CCc3ccccc3C1)C2=O (stereo partly drawn) [Example 205, 4-[(2R)-3-(3,4-dihydro-1H-isoquinolin-2-yl)-2-hydroxy-propyl]-8-(3,5-dimethylmorpholin-4-carbonyl)-2,2-dimethyl-3H-1,4-benzoxazepin-5-one] | 100 to 1000 |
| CN1CCN(C[C@H](O)CN2CCc3ccccc3C2)C(=O)c2ccc(OCc3ccncc3F)cc21 [Example 134, 4-[(2R)-3-(3,4-dihydro-1H-isoquinolin-2-yl)-2-hydroxy-propyl]-8-[(3-fluoro-4-pyridyl)methoxy]-1-methyl-2,3-dihydro-1,4-benzodiazepin-5-one] | 1 to 100 |
| CC(=O)N1CC[C@@H](Oc2ccc3c(c2)N(C)CCN(C[C@H](O)CN2CCc4ccccc4C2)C3=O)C1 [Example 123, 8-[(3R)-1-acetylpyrrolidin-3-yl]oxy-4-[(2R)-3-(3,4-dihydro-1H-isoquinolin-2-yl)-2-hydroxy-propyl]-1-methyl-2,3-dihydro-1,4-benzodiazepin-5-one] | 100 to 1000 |
| C[C@@H]1CN(C[C@H](O)CN2CCc3ccccc3C2)C(=O)c2ccc(OC3CCN(C[C@@H](C)O)CC3)cc2O1 [Example 268, (2R)-4-[(2R)-3-(3,4-dihydro-1H-isoquinolin-2-yl)-2-hydroxy-propyl]-8-[[1-[(2R)-2-hydroxypropyl]-4-piperidyl]oxy]-2-methyl-2,3-dihydro-1,4-benzoxazepin-5-one] | 100 to 1000 |
| CCN1CCC(Oc2ccc3c(c2)N(C)CCN(C[C@H](O)CN2CCc4ccccc4C2)C3=O)CC1 [Example 126, 4-[(2R)-3-(3,4-dihydro-1H-isoquinolin-2-yl)-2-hydroxy-propyl]-8-[(1-ethyl-4-piperidyl)oxy]-1-methyl-2,3-dihydro-1,4-benzodiazepin-5-one] | 100 to 1000 |
| COCCN1CCC(Oc2ccc3c(c2)O[C@H](C)CN(C[C@H](O)CN2CCc4ccccc4C2)C3=O)CC1 [Example 224, (2R)-4-[(2R)-3-(3,4-dihydro-1H-isoquinolin-2-yl)-2-hydroxy-propyl]-8-[[1-(2-methoxyethyl)-4-piperidyl]oxy]-2-methyl-2,3-dihydro-1,4-benzoxazepin-5-one] | 100 to 1000 |

Next, values leading:

| IC50 [nM] | SMILES |
| --- | --- |
| 100 to 1000 | O=C1c2ccc(OC3CCN(CCO)CC3)cc2OCCN1C[C@H](O)CN1CCc2ccccc2C1 [Example 162, 4-[(2R)-3-(3,4-dihydro-1H-isoquinolin-2-yl)-2-hydroxy-propyl]-8-[[1-(2-hydroxyethyl)-4-piperidyl]oxy]-2,3-dihydro-1,4-benzoxazepin-5-one] |
| 1 to 100 | CC(O)C#Cc1ccc2c(c1)OCCN(C[C@H](O)CN1CCc3ccccc3C1)C2=O (stereo partly drawn) [Example 228, 4-[(2R)-3-(3,4-dihydro-1H-isoquinolin-2-yl)-2-hydroxy-propyl]-8-(3-hydroxybu-1-tynyl)-2,3-dihydro-1,4-benzoxazepin-5-one] |
| 100 to 1000 | O=C1c2ccc(CN3CCC(O)C3)cc2OCCN1C[C@H](O)CN1CCc2ccccc2C1 (stereo partly drawn) [Example 35, 4-[(2R)-3-(3,4-dihydro-1H-isoquinolin-2-yl)-2-hydroxy-propyl]-8-[(3-hydroxypyrrolidin-1-yl)methyl]-2,3-dihydro-1,4-benzoxazepin-5-one] |
| 100 to 1000 | CN1CCN(C(=O)c2ccc3c(c2)OCCN(C[C@H](O)CN2CCc4ccccc4C2)C3=O)CC1 [Example 178, 4-[(2R)-3-(3,4-dihydro-1H-isoquinolin-2-yl)-2-hydroxy-propyl]-8-(4-methylpiperazine-1-carbonyl)-2,3-dihydro-1,4-benzoxazepin-5-one] |
| 100 to 1000 | CC(=O)N1CCN(Cc2ccc3c(c2)OCCN(C[C@H](O)CN2CCc4ccccc4C2)C3=O)CC1 [Example 53, 8-[(4-acetylpiperazin-1-yl)methyl]-4-[(2R)-3-(3,4-dihydro-1H-isoquinolin-2-yl)-2-hydroxy-propyl]-2,3-dihydro-1,4-benzoxazepin-5-one] |
| 100 to 1000 | CN1CCC[C@@H](Oc2ccc3c(c2)OCCN(C[C@H](O)CN2CCc4ccccc4C2)C3=O)C1 [Example 218, 4-[(2R)-3-(3,4-dihydro-1H-isoquinolin-2-yl)-2-hydroxypropyl]-8-[(1-methyl-3-piperidyl)oxy]-2,3-dihydro-1,4-benzoxazepin-5-one] |
| 1 to 100 | CC(=O)N1CCC(c2ccc3c(c2)OCCN(C[C@H](O)CN2CCc4ccccc4C2)C3=O)CC1 [Example 17, 8-(1-acetyl-4-piperidyl)-4-[(2R)-3-(3,4-dihydro-1H-isoquinolin-2-yl)-2-hydroxy-propyl]-2,3-dihydro-1,4-benzoxazepin-5-one] |
| 100 to 1000 | C[C@@H]1CCCN1Cc1ccc2c(c1)OCCN(C[C@H](O)CN1CCc3ccccc3C1)C2=O [Example 36, 4-[(2R)-3-(3,4-dihydro-1H-isoquinolin-2-yl)-2-hydroxy-propyl]-8-[[(2R)-2-methylpyrrolidin-1-yl]methyl]-2,3-dihydro-1,4-benzoxazepin-5-one] |
| 100 to 1000 | O=C1c2ccc(OCC(F)(F)F)cc2OCCN1C[C@H](O)CN1CCc2ccccc2C1 [Example 71, 4-[(2R)-3-(3,4-dihydro-1H-isoquinolin-2-yl)-2-hydroxy-propyl]-8-(2,2,2-trifluoroethoxy)-2,3-dihydro-1,4-benzoxazepin-5-one] |
| 100 to 1000 | O=C(c1ccc2c(c1)OCCN(C[C@H](O)CN1CCc3ccccc3C1)C2=O)N1CCCC1 [Example 175, 4-[(2R)-3-(3,4-dihydro-1H-isoquinolin-2-yl)-2-hydroxy-propyl]-8-(pyrrolidin-1-carbonyl)-2,3-dihydro-1,4-benzoxazepin-5-one] |
| 1 to 100 | Cc1nn(C)cc1-c1ccc2c(c1)OCCN(C[C@H](O)CN1CCc3ccccc3C1)C2=O [Example 231, 4-[(2R)-3-(3,4-dihydro-1H-isoquinolin-2-yl)-2-hydroxy-propyl]-8-(1,3-dimethylpyrazol-4-yl)-2,3-dihydro-1,4-benzoxazepin-5-one] |
| 100 to 1000 | CC(O)CN1CC[C@@H](Oc2ccc3c(c2)OCCN(C[C@H](O)CN2CCc4ccccc4C2)C3=O)[C@H](F)C1 (stereo partly drawn) [Example 254, 4-[(2R)-3-(3,4-dihydro-1H-isoquinolin-2-yl)-2-hydroxy-propyl]-8-[[(3R,4R)-3-fluoro-1-(2-hydroxypropyl)-4-piperidyl]oxy]-2-methyl-2,3-dihydro-1,4-benzoxazepin-5-one divalnet hydrochloride] |
